Measured values published in ChEMBL document CHEMBL1151944, “Activation of peroxisome proliferator-activated receptor gamma (PPARgamma) by nitroalkene fatty acids: importance of nitration position and degree of unsaturation” (J Med Chem, 2009).
Activity calls are given as the source filed them. No cut-off for these calls is given here.

Columns and labels:
[1] = target: T1, Peroxisome proliferator-activated receptor alpha (Homo sapiens, UniProt Q07869)
T1 sequence (Q07869 whole entry): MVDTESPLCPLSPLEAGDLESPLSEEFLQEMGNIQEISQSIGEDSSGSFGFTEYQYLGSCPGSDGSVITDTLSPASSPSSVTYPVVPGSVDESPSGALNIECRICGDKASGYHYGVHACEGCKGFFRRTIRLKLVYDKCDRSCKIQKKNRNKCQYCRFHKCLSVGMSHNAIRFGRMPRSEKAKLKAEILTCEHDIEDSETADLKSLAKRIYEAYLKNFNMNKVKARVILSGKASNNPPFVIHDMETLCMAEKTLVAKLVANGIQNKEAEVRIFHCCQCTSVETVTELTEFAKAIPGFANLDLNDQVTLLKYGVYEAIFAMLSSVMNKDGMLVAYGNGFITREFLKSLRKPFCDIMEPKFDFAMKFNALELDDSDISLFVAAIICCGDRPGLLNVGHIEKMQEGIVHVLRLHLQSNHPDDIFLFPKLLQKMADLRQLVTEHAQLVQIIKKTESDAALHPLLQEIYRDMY
Description: (§1) Displacement of [3H2]nTZD3 from GST-tagged human recombinant PPARalpha by scintillation proximity assay

[2] = target: T2, Peroxisome proliferator-activated receptor gamma (Homo sapiens, UniProt P37231); experiment: Displacement of [3H2]nTZD3 from GST-tagged human recombinant PPARgamma by scintillation proximity assay
T2 sequence (P37231 whole entry): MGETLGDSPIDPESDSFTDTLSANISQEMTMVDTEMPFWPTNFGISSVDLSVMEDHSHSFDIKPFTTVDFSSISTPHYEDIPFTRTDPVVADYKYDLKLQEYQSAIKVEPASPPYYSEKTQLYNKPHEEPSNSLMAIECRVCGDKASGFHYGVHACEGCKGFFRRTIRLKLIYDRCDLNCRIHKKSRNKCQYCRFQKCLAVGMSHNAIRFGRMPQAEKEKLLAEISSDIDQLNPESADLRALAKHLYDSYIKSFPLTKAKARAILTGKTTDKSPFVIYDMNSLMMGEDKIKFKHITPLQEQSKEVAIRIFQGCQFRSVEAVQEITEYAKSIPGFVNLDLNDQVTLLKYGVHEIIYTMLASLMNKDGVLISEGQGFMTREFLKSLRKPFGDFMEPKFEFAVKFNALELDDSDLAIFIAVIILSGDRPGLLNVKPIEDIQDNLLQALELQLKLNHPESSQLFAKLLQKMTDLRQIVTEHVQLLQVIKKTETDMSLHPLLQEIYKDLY

[3] = Cytotoxicity against human MCF7 cells expressing human PPARgamma assessed as cell survival at 5 uM after 7 days by sulforhodamine B assay
[4] = target: T1, Peroxisome proliferator-activated receptor alpha; remark: listed apart in the source
Description: as §1

[5] = target: T3, Peroxisome proliferator-activated receptor gamma (Homo sapiens) (UniProt P37231); experiment: Activation of human PPAR-gamma-dependent transcription expressed in human MCF7 cells assessed as induction of PPRE-reporter gene expression at 1 uM after 24 hrs by dual luciferase reporter gene assay; format: cell-based
T3 sequence (whole entry): T2 sequence (P37231 whole entry)

| IC50 [1] [µM] | IC50 [2] [µM] | IC50 [4] [µM] | Activity [5] | SMILES | viability at 168 h, 5 µM [3] [%] |
| --- | --- | --- | --- | --- | --- |
| > 15 | 0.63 | – | – | CCCCCC/C(=C\CCCCCCCC(=O)O)[N+](=O)[O-] | – |
| 1.1 | 0.19 | – | – | CCCCC/C(=C\CCCCCCCCCCC(=O)O)[N+](=O)[O-] | – |
| > 15 | 1.61 | – | – | CCCCCCCC/C(=C\CCCCCCCC(=O)O)[N+](=O)[O-] [CXA-10] | – |
| > 15 | 0.98 | – | – | CCCCCCCC/C=C(\CCCCCCCC(=O)O)[N+](=O)[O-] [NITROLEIC ACID] | < 5 |
| > 15 | 0.83 | – | – | CCCCCC/C=C(\CCCCCCCC(=O)O)[N+](=O)[O-] | – |
| > 15 | 1.72 | – | – | CCCCCCCCCCCC/C(=C\CCCC(=O)O)[N+](=O)[O-] | – |
| 1.6 | 0.039 | – | – | CCCCC/C=C(\CCCCCCCCCCC(=O)O)[N+](=O)[O-] | – |
| > 15 | 1.68 | – | – | CCCCCCCCCCCC/C=C(\CCCC(=O)O)[N+](=O)[O-] | – |
| – | – | 9.6 | Active | CCCCC/C=C(\C/C=C\CCCCCCCC(=O)O)[N+](=O)[O-] | – |
